Structure (SMILES): CN1CCN(C(=O)O[C@H]2c3nccnc3C(=O)N2c2ccc(Cl)cn2)CC1
- solubility (mole fraction) (in acetone, 288.15 K): 0.0013
- solubility (mole fraction) (in acetone, 293.15 K): 0.0015
- solubility (mole fraction) (in acetone, 298.15 K): 0.0019
- solubility (mole fraction) (in acetone, 303.15 K): 0.0023
- solubility (mole fraction) (in acetone, 308.15 K): 0.0027
- solubility (mole fraction) (in acetone, 313.15 K): 0.0032
- solubility (mole fraction) (in acetone, 318.15 K): 0.0037
- solubility (mole fraction) (in ethanol, 288.15 K): 0.0002
- solubility (mole fraction) (in ethanol, 293.15 K): 0.0003
- solubility (mole fraction) (in ethanol, 298.15 K): 0.0004
- solubility (mole fraction) (in ethanol, 303.15 K): 0.0004
- solubility (mole fraction) (in ethanol, 308.15 K): 0.0005
- solubility (mole fraction) (in ethanol, 313.15 K): 0.0007
- solubility (mole fraction) (in ethanol, 318.15 K): 0.0009
- solubility (mole fraction) (in ethanol, 323.15 K): 0.001
- solubility (mole fraction) (in ethanol, 328.15 K): 0.0012

— BigSolDB 2.1
